Data taken from PubChem BioAssay (NCI).
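Cells were grown in 96-well plates and exposed to each compound for 48 hours at five concentrations; endpoints were interpolated linearly between bracketing concentrations, or set to the highest concentration if not reached. TGI is the concentration that stops growth completely.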

What was measured:
Experiment in all cases: NCI tumour cell line growth inhibition, 48 h
[1] = system: ACHN renal
[2] = system: CAKI-1 renal
[3] = system: CCRF-CEM leukemia
[4] = system: HCC-2998 colon
[5] = system: HCT-15 colon
[6] = system: HL-60(TB) leukemia
[7] = system: HOP-92 NSCLC
[8] = system: HT29 colon
[9] = system: IGROV1 ovarian
[10] = system: LOX IMVI melanoma
[11] = system: OVCAR-5 ovarian
[12] = system: OVCAR-8 ovarian
[13] = system: SF-539 CNS
[14] = system: SN12C renal
[15] = system: SNB-75 CNS
[16] = system: SR leukemia
[17] = system: TK-10 renal
[18] = system: U251 CNS
[19] = system: UACC-257 melanoma

Structure (SMILES) | TGI [1] [µM] | TGI [2] [µM] | TGI [3] [µM] | TGI [4] [µM] | TGI [5] [µM] | TGI [6] [µM] | TGI [7] [µM] | TGI [8] [µM] | TGI [9] [µM] | TGI [10] [µM] | TGI [11] [µM] | TGI [12] [µM] | TGI [13] [µM] | TGI [14] [µM] | TGI [15] [µM] | TGI [16] [µM] | TGI [17] [µM] | TGI [18] [µM] | TGI [19] [µM]
C[N+](C)(C)CC(=O)N/N=C(/CC1OC(=O)c2ccccc21)c1ccccc1O (configuration not stated) | 66.4 | > 100 | 49.3 | 50.9 | > 100 | 52.3 | 87.6 | > 100 | > 100 | 43.2 | > 100 | 82 | 62.3 | > 100 | > 100 | 34 | > 100 | 72.3 | 78.9
COc1ccc2c(c1)CCC1=C/C(=N\NC(N)=O)CCC12C (configuration not stated) | > 10 | > 10 | > 10 | > 10 | > 10 | > 10 | > 10 | > 10 | > 10 | > 10 |  | > 10 | > 10 | > 10 | > 10 | > 10 | > 10 | > 10 | > 10
COc1cc2ccc1OCc1cccc(n1)COc1ccc(cc1OC)C=Nc1ccc(cc1)-c1ccc(cc1)N=C2 | > 100 | > 100 | > 100 | > 100 | > 100 | > 100 | > 100 | > 100 | > 100 | > 100 |  | > 100 | > 100 | > 100 | > 100 | > 100 | > 100 | > 100 | > 100
C[S+](C)CC(=O)c1ccc2c(c1)Sc1ccccc1O2 | 16.1 | 15 | > 100 | 7.71 | 13.2 | > 100 | 21.5 | 9.15 | 8.1 | 20.9 | 18.8 | 13.6 | 2.29 | 36.3 | 14.2 | > 50.9 | 16.3 | 17.6 | 18.2
C[C@H](CCC(=O)O)[C@H]1CC[C@H]2[C@@H]3[C@H](O)C[C@@H]4C[C@H](O)CC[C@]4(C)[C@H]3CC[C@]12C | > 100 | > 100 | > 100 | 79.9 | > 100 | > 100 | 91.1 | 87.4 | > 100 | > 100 | > 100 | 37.7 | 62.1 | > 100 | 57.4 | 47.4 | > 100 | > 100 | > 100
CC(=O)Oc1cc(C)c(OC(C)=O)c2c1[C@H]1CC[C@]3(C)[C@@H](OC(C)=O)CC[C@H]3[C@@H]1CC2 | 27.7 | 31.5 | 43.5 | 26.9 | 31.3 | 56.7 | 23.7 | 46.2 | 32.9 | 29.3 | 36 | 44.7 | 35.4 | 33.2 | 52.1 | > 100 | 31.6 | 29.4 | 30
CCN(CC)c1ccc2cc(C(=O)Nc3nc(C45CC6CC(CC(C6)C4)C5)cs3)c(=O)oc2c1 | > 100 | > 100 | > 100 | > 100 | > 100 | > 100 | > 100 | > 100 | > 100 | > 100 | > 100 | > 100 | > 100 | > 100 |  | > 100 | > 100 | > 100 | > 100
O=C1CCCCCC1CC(Sc1ccccc1)Sc1ccccc1 (configuration not stated) | > 100 | > 100 | > 100 | > 100 | > 100 | 52.7 | > 100 | > 100 | > 100 | > 100 | > 100 | > 100 | > 100 |  | > 100 | > 100 | > 100 | > 100 | > 100
C[C@@H]1OC(=O)C[C@H]2CC(=O)N(CCC3CN(S(=O)(=O)C(F)(F)F)c4ccccc43)C[C@@H]21 (some centres not stated) | > 100 | > 100 | > 100 | > 100 | > 100 |  | > 100 | > 100 | > 100 |  | > 100 |  |  |  |  | > 100 |  | > 100 | > 100
C#C[C@]1(O)CC[C@H]2[C@@H]3CCC4=C/C(=N\OCCN(CC)CC)CC[C@]4(C)[C@H]3CC[C@@]21C | 28.1 | 39.7 | 44.9 | 25.9 | 25.3 | 3.42 | 52.9 | 14.6 | 17.1 | 13.1 | 32.2 | 24.6 | 10.1 | 46.8 | 10.9 | > 31.3 | 23.5 | > 38.3 | 16.9
Cc1ccc(CC(Cc2ccc(C)cc2C(=O)O)C(=O)O)cc1 (configuration not stated) | > 100 | > 100 | > 100 | > 100 | > 100 | > 100 | > 100 | > 100 | > 100 | > 100 | > 100 | > 100 | > 100 | > 100 | > 100 | > 100 | > 100 | > 100 | > 100
O=C(O)c1cc(O)c2c(c1)C([C@@H]1c3cccc(O)c3C(=O)c3c(O)cc(C(=O)O)cc31)c1cccc(O)c1C2=O (some centres not stated) | > 100 | > 100 | > 100 | > 100 |  | 85.5 | 57.7 | > 100 | 49.4 | 31.9 | > 100 | > 100 | 55 | > 100 | 62.6 | > 100 | > 100 | 67.8 | > 100
Clc1ccc(C=NC23CC4CC(CC(C4)C2)C3)cc1Cl | > 10 | > 10 | > 10 | > 10 | > 10 | > 10 | > 10 | > 10 | > 10 | > 10 | > 10 | > 10 | > 10 | > 10 | > 10 | > 10 | > 10 | > 10 | > 10
CC1CN=C(NS(=O)(=O)c2cc(C(=O)Nc3ccc(F)cc3)c(Cl)cc2S)NN1 (configuration not stated) | > 100 | > 100 | > 100 | > 100 | > 100 | > 100 |  | > 100 | > 100 | > 100 | > 100 | > 100 | > 100 | > 100 |  | > 100 | > 100 | > 100 | > 100
COc1ccc([C@]23CCN(S(=O)(=O)c4ccc(C)cc4)[C@H]2[C@H](CO)C2(CC3)OCC(C)(C)CO2)cc1OC | > 100 | > 100 | > 100 | > 100 | > 100 | > 100 | > 100 | > 100 | > 100 | > 100 | > 100 | > 100 |  | > 100 | > 100 | > 100 | > 100 | > 100 | > 100
O=[N+]([O-])C(=C(Nc1ccccc1)Nc1ccccc1)/C(Cl)=C(\Cl)Br | 25 |  | 6.44 | 35 | 24.2 | 4.41 | 33.6 | 29.7 |  | 15.2 | 22.5 | 37 | 46 | 26.6 | 28.4 | 22.6 |  | 28.2 | 27.8
COc1ccc(N=Nc2ccc3oc(=O)c(C(=O)Nc4ccc(Cl)cc4)cc3c2)cc1 | > 10 | > 10 |  | > 10 | > 10 |  | > 10 | > 10 | > 10 | > 10 | > 10 | > 10 | > 10 | > 10 | > 10 | > 10 | > 10 | > 10 | > 10
CC(=O)C(=[N+]=[N-])C(=O)OCCOC(=O)C(=[N+]=[N-])C(C)=O | > 1 |  | > 1 | > 1 | > 1 | > 1 | > 1 | > 1 | > 1 | > 1 | > 1 | > 1 | > 1 | > 1 | > 1 | > 1 | > 1 | > 1 | > 1
CC1(C)CCC[C@@]2(C)C1C(=O)[C@@H]1O[C@]1(C)[C@@H]2CO (some centres not stated) | > 100 |  | > 100 | 66.5 | > 100 | 51.8 | 88 | > 100 | > 100 | > 100 | > 100 | > 100 | > 100 | > 100 | 79 | 24.9 | > 100 | 70.8 | > 100
CCNc1nc2c(ncn2C2CC(O)C(COP(=O)(O)O)O2)c(=O)[nH]1 (configuration not stated) | > 100 | > 100 |  | > 100 | > 100 | > 100 | > 100 | > 100 | > 100 | > 100 | > 100 | > 100 | > 100 | > 100 | > 100 | > 100 | > 100 | > 100 | > 100
CC(=O)NC(CCCNC(=O)NCCCl)C(=O)NCc1ccccc1 (configuration not stated) | > 100 | > 100 | > 100 | > 100 | > 100 | > 100 | > 100 | > 100 |  |  |  | > 100 | > 100 | > 100 | > 100 | > 100 | > 100 | > 100 | > 100
O=C(O)C1(Cc2ccc3c(c2)CCC3)Cc2ccccc2C1=O (configuration not stated) | > 100 |  | > 100 | > 100 | > 100 | > 100 | 87.3 | > 100 | > 100 | > 100 | > 100 | > 100 | > 100 | > 100 | > 100 | > 100 | > 100 | > 100 | > 100
Nc1nc(NCC2(CO)CCC2)cc(=O)[nH]1 |  | > 100 | > 100 | > 100 | > 100 | > 100 | > 100 | > 100 | > 100 | > 100 | > 100 | > 100 |  | > 100 | > 100 | > 100 |  | > 100 | > 100
CNC(=O)CNC(=O)C(Cc1ccc(NC(=O)CCCCC(C)=O)cc1)NC(=O)C(CCC(=O)OCc1ccccc1)NC(=O)OC(C)(C)C (configuration not stated) | > 100 | > 100 |  | > 100 | > 100 | > 100 | > 100 | > 100 | > 100 | > 100 | > 100 | > 100 | > 100 | > 100 | > 100 | > 100 | > 100 | > 100 | 
CCSC1=N/C(=C/c2ccccc2O)C(=O)N1 | > 100 | > 100 | > 100 | > 100 | > 100 | > 100 | > 100 | > 100 | > 100 | > 100 | > 100 | > 100 | 91.8 | > 100 | 72.1 | > 100 |  | > 100 | > 100
